Common to all, as to format: functional
Assay [1] deals with Pseudomonas aeruginosa. Description: Potentiation of ceftazidime-induced antibacterial activity against carbapenem-resistant Pseudomonas aeruginosa PAO750 harboring mexAB-oprM/mexCD-oprJ/mexEF-oprN/mexJK/mexXY/opmH efflux deficient mutant assessed as ceftazidime MIC at 8.7 uM by checkerboard assay (reference value: 0.5 ug/ml).
In assay [2] the test system is Pseudomonas aeruginosa. Briefly: Potentiation of ceftazidime-induced antibacterial activity against wild-type Pseudomonas aeruginosa PAO1 assessed as ceftazidime MIC at 8.7 uM by checkerboard assay (reference value: 2 ug/ml).
Assay [3] concerns Pseudomonas aeruginosa. Description: Potentiation of ceftazidime-induced antibacterial activity against carbapenem-resistant Pseudomonas aeruginosa 88949 clinical isolate assessed as ceftazidime MIC at 8.7 uM by checkerboard assay (reference value: 64 ug/ml).
For assay [4], the system named is Pseudomonas aeruginosa. Description: Potentiation of aztreonam-induced antibacterial activity against carbapenem and colistin-resistant Pseudomonas aeruginosa 91433 clinical isolate assessed as aztreonam MIC at 8.7 uM by checkerboard assay (reference value: 16 ug/ml).
Assay [5] has as its system Pseudomonas aeruginosa. Briefly: Potentiation of ceftazidime-induced antibacterial activity against carbapenem and colistin-resistant Pseudomonas aeruginosa 114228 clinical isolate assessed as ceftazidime MIC at 8.7 uM by checkerboard assay (reference value: 8 ug/ml).
Assay [6] has as its system Pseudomonas aeruginosa. Briefly: Potentiation of aztreonam-induced antibacterial activity against carbapenem-resistant Pseudomonas aeruginosa 260-97103 clinical isolate assessed as aztreonam MIC at 8.7 uM by checkerboard assay (reference value: 64 ug/ml).
Assay [7] relates to Pseudomonas aeruginosa. Briefly: Potentiation of aztreonam-induced antibacterial activity against carbapenem-resistant Pseudomonas aeruginosa 88949 clinical isolate assessed as aztreonam MIC at 8.7 uM by checkerboard assay (reference value: 32 ug/ml).
Assay [8] concerns Pseudomonas aeruginosa. Briefly: Potentiation of aztreonam-induced antibacterial activity against carbapenem-resistant Pseudomonas aeruginosa 107092 clinical isolate assessed as aztreonam MIC at 8.7 uM by checkerboard assay (reference value: 64 ug/ml).
Assay [9] deals with Pseudomonas aeruginosa. Briefly: Potentiation of aztreonam-induced antibacterial activity against carbapenem-resistant Pseudomonas aeruginosa 262-101856 clinical isolate assessed as aztreonam MIC at 8.7 uM by checkerboard assay (reference value: 32 ug/ml).
In assay [10] the test system is Pseudomonas aeruginosa. Briefly: Potentiation of aztreonam-induced antibacterial activity against carbapenem and colistin-resistant Pseudomonas aeruginosa 101243 clinical isolate assessed as aztreonam MIC at 8.7 uM by checkerboard assay (reference value: 32 ug/ml).
Assay [11] has as its system Pseudomonas aeruginosa. Description: Potentiation of ceftazidime-induced antibacterial activity against carbapenem and colistin-resistant Pseudomonas aeruginosa 91433 clinical isolate assessed as ceftazidime MIC at 8.7 uM by checkerboard assay (reference value: 4 ug/ml).

This note sets out measurements from ChEMBL document CHEMBL4665836, “Overcoming β-Lactam resistance in Pseudomonas aeruginosa using non-canonical tobramycin-based antibiotic adjuvants” (2020).

Consider `NC[C@H]1O[C@H](O[C@H]2[C@H](OCCCCCCCCN3CCCNCCNCCCNCC3)[C@@H](O[C@H]3O[C@H](CO)[C@@H](O)[C@H](N)[C@H]3O)[C@H](N)C[C@@H]2N)[C@H](N)C[C@@H]1O.O=C(O)C(F)(F)F.O=C(O)C(F)(F)F.O=C(O)C(F)(F)F.O=C(O)C(F)(F)F.O=C(O)C(F)(F)F.O=C(O)C(F)(F)F.O=C(O)C(F)(F)F.O=C(O)C(F)(F)F.O=C(O)C(F)(F)F`, for which the MIC (usually the smallest concentration in the dilution series that meets the test's criterion for growth inhibition) is 0.06 µg/mL in the assay with Pseudomonas aeruginosa [1]; 0.25 µg/mL in the assay with Pseudomonas aeruginosa [2]; 16 µg/mL in the assay on Pseudomonas aeruginosa [3]; 16 µg/mL in the assay with Pseudomonas aeruginosa [4]; 1 µg/mL with Pseudomonas aeruginosa [5]; 8 µg/mL with Pseudomonas aeruginosa [6]. Also, the MIC stood at 16 µg/mL with Pseudomonas aeruginosa [7]; 16 µg/mL with Pseudomonas aeruginosa [8]; 8 µg/mL in the assay on Pseudomonas aeruginosa [9]; 8 µg/mL in the assay with Pseudomonas aeruginosa [10]; 2 µg/mL in the assay with Pseudomonas aeruginosa [11].
